The text below walks through data of patent US20240368153A1, “Aminopyridine-based MTA-Cooperative PRMT5 Inhibitors” (Mirati Therapeutics, Inc., priority 2021, published 2024).

Where two headings read alike, the source gives them in different places.

As a reminder, the IC50 is the midpoint of a concentration-inhibition curve. By Kd is commonly meant a measure of binding affinity in units of concentration. Low values mean tighter binding, high ones weaker binding.

Assay [1] has as its target recombinant human dual expressed Avi PRMT5/His-MEP50 protein (Homo sapiens (Human), UniProt O14744). The assay is described as follows: HTRF binding assay in presence of MTA. To be noted: 30 μM MTA. The protocol: The PRMT5 binding activity of compounds of the present invention was determined using an HTRF binding assay or SPR assay.
A recombinant human dual expressed Avi PRMT5/His-MEP50) protein (corresponding to amino acids for PRMT5 2-637, and 2-342 for MEP50 expressed in baculovirus) was incubated with target fragments in final buffer (25 mM ADA pH 7.2, 30 μM MTA, 1 mM TCEP, 50 mM NaCl, 0.002% Tween, 5 nM proprietary Tracer binding compound prepared in-house), overnight at 2-8° C. After overnight incubation the binding is monitored after the addition of 0.5 nM Anti-His-Tb (Cisbio) after 1 hr incubation at RT (˜20-24 hrs total binding time). The HTRF signal was measured using a Clariostar reader (BMG) excitation filter (Ex Tr), dichroic filter (LP TP) and emission filters (F 665-10 and F 620-10) manufacturer's instructions. The HTRF ratio was calculated using the formula: [emission 665/emission 620]*10000.
For orientation: Time-resolved FRET reads energy transfer from a long-lived donor to a nearby acceptor.

Assay [2] concerns the target PRMT5•MTA (biotinylated PRMT5-MEP50) (Homo sapiens (Human), UniProt O14744). The assay is described as follows: SPR binding assay, MTA running buffer. To be noted: 20 μM MTA running buffer. The protocol: (§1) SPR screening was performed in MTA running buffer (25 mM Bicine pH 7.6, 100 mM NaCl, 1 mM TCEP, 20 μM MTA, 0.05% Tween-20 and 2% DMSO). The biotinylated PRMT5-MEP50 surface was equilibrated with MTA running buffer for 12 hours prior to the start. […] Subsequently, compound titration was repeated in SAM-running buffer (25 mM Bicine pH 7.6, 100 mM NaCl, 1 mM TCEP, 20 μM SAM, 0.05% Tween-20, and 2% DMSO). […] After double referencing, the steady-state response was extracted for each fragment concentration and was fit to the Langmuir isotherm equation to determine the equilibrium dissociation constant (KD).
A general note: SPR reads the build-up and loss of mass on a sensor chip optically.

The target of assay [3] is PRMT5•SAM (biotinylated PRMT5-MEP50) (Homo sapiens (Human), UniProt O14744). The assay is described as follows: SPR binding assay, SAM running buffer. To be noted: 20 μM SAM running buffer. The protocol:
as §1

The next assay deals with PRMT5/MEP50 complex (Homo sapiens (Human), UniProt O14744). The assay can be described thus: PRMT5:MEP50 FlashPlate Assay. Format: biochemical. The protocol: The PRMT5 inhibitory activity of compounds of the present invention was determined using a PRMT5:MEP50 FlashPlate Assay (Reaction Biology Corporation).
Sequence of PRMT5/MEP50 complex (O14744 whole entry): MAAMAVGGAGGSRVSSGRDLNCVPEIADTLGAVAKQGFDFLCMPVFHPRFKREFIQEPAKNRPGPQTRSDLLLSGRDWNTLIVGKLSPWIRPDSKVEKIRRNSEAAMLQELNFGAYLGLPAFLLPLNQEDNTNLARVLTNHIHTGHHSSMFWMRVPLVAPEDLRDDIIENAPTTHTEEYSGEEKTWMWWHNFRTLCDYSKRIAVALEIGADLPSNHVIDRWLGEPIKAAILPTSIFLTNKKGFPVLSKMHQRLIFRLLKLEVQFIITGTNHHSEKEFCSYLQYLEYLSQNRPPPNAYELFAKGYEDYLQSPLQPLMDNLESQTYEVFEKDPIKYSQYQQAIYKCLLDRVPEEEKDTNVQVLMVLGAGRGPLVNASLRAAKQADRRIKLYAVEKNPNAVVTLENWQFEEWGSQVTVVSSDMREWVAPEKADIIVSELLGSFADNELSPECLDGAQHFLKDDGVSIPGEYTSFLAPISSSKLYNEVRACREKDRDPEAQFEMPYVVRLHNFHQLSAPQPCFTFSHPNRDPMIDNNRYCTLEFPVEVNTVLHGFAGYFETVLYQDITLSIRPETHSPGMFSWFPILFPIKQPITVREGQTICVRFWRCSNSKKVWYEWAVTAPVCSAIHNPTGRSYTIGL
Sequence of PRMT5/MEP50 complex (Q9BQA1 whole entry partner): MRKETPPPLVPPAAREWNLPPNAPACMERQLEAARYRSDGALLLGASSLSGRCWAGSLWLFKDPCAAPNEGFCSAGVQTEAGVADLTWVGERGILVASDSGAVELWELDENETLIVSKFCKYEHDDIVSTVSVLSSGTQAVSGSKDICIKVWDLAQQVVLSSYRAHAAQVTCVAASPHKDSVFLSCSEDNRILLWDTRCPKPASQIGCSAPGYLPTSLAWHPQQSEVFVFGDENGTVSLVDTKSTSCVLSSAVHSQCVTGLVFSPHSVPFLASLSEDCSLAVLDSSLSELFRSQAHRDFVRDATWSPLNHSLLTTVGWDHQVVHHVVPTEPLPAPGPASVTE
The assay uses purified human, PRMT5 enzyme to convert S-adenosyl-L-[methyl-^3H]methionine plus histone H4 L-arginine to S-adenosyl-L-homocysteine plus histone H4 [methyl-^3H]-L-arginine. The assay was carried out using Streptavidin-coated FlashPlates (Perkin Elmer), which contained a scintillant embedded in the plastic of the plate. The histone H4 peptide substrate was conjugated with biotin, which binds to the streptavidin-coated well of the plate, placing the H4 peptide in close proximity to the side well and the scintillant. The transfer of the tritiated methyl group from S-adenosyl-L-[methyl-^3H]methionine to the bound histone H4 peptide generated a radiolabeled histone H4, which was quantitated by measuring in a scintillation counter to determine the activity of PRMT5 enzyme in the presence and absence of compound. […] Briefly, compounds of the present invention were solubilized in 100% DMSO at a highest concentration of 10 mM. For IC, determinations, the initial starting concentration for the serial dilutions of each compound was 50 μM. Control samples lacking compound, PRMT5/MEP50 complex or various reaction components also were prepared and processed in parallel with compound test samples. SAH was used as a positive control for assay validation. To measure PRMT5 inhibitory activity, 3 nM PRMT5/MEP50 complex (Reaction Biology Corporation) was preincubated with test compound in assay buffer containing 40 nM histone H4 peptide (amino acids 1-15)-Biotin conjugate for 20 min at room temperature. The enzymatic reaction was initiated by adding 1 μM tritiated S-adenosyl methionine (final concentration) and the reaction is allowed to proceed for 20 min. The reaction was stopped and the amount of bound, tritiated H4 peptide in each sample was determined using a scintillation counter. The IC50 value for each compound was calculated from each 10-point dose-response curve for samples plus and minus MTA using GraphPad Prism software and the results for exemplary compounds of Formula (I) is shown in Table 9a.

Setting [4] is: histone H4 peptide, absence of MTA, read-out: IC50.
Where [5] appears, read: read-out: IC50 + 2 μM MTA, histone H4 peptide, presence of 2 μM MTA.
Where [6] appears, read: IC50 + 2 μM MTA, histone H4 peptide, presence of 2 μM MTA.

Sequence of recombinant human dual expressed Avi PRMT5/His-MEP50 protein (O14744 2-637): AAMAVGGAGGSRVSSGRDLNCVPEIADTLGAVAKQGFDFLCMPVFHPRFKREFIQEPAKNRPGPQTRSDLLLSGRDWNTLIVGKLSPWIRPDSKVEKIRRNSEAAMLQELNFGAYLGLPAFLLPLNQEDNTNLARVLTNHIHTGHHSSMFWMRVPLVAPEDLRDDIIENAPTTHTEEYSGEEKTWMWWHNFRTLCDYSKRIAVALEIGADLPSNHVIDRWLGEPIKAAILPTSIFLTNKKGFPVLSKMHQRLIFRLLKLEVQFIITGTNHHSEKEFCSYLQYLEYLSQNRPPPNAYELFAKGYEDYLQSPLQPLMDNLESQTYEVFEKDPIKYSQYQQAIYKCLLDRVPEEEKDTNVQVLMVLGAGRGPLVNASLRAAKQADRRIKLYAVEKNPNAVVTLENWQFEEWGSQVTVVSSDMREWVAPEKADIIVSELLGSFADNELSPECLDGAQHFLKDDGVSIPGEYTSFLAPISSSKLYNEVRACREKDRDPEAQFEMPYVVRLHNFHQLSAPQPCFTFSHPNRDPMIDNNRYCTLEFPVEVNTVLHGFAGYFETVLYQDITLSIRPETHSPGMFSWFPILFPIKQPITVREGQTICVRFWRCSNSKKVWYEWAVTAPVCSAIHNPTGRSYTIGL
Sequence of recombinant human dual expressed Avi PRMT5/His-MEP50 protein (Q9BQA1 2-342 partner): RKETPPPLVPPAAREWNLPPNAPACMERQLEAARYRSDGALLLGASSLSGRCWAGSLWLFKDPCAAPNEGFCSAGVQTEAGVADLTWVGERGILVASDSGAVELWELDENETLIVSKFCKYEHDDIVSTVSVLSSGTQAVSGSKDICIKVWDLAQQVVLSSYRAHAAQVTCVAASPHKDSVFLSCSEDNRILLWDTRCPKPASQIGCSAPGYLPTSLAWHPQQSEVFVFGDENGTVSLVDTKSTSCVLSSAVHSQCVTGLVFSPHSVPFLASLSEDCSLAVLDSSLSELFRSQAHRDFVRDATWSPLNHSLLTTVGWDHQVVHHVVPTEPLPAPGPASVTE
Sequence of PRMT5•SAM (biotinylated PRMT5-MEP50) (O14744 whole entry): as the sequence (O14744 whole entry) above
Sequence of PRMT5•SAM (biotinylated PRMT5-MEP50) (Q9BQA1 whole entry partner): as the sequence (Q9BQA1 whole entry partner) above
Sequence of PRMT5•MTA (biotinylated PRMT5-MEP50) (O14744 whole entry, the tested form may be a part): as the sequence (O14744 whole entry) above
Sequence of PRMT5•MTA (biotinylated PRMT5-MEP50) (Q9BQA1 whole entry partner, the tested form may be a part): as the sequence (Q9BQA1 whole entry partner) above

Take `Cc1cc(N)nc2cc(Cc3ccccc3F)cnc12` [Example 2-2, 7-(2-fluorobenzyl)-4-methyl-1,5-naphthyridin-2-amine]: the half-maximal inhibitory concentration (IC50) in assay [1] was found to be 0.354 µM. Also, the equilibrium dissociation constant (Kd) was 5.28 µM in assay [2] and 39.1 µM in assay [3].
Consider `Cc1cc(N)nc2cc(Cc3cccnc3)cnc12` [Example 2-7, 4-methyl-7-(3-pyridylmethyl)-1,5-naphthyridin-2-amine], for which the IC50 in assay [1] amounted to 0.581 µM. The Kd in assay [2] amounted to 0.232 µM; in assay [3], 1.22 µM.
`Cc1cc(N)nc2cc(Oc3cccnc3)cnc12` [Example 3-7, 4-methyl-7-(3-pyridyloxy)-1,5-paphthyridin-2-amine]: the IC50 on PRMT5/MEP50 complex (setting [4]) was found to be 351 µM; on PRMT5/MEP50 complex (setting [5]), 26.1 µM; in assay [1] it was 0.546 µM. For the same compound, the Kd in assay [2] was 2.46 µM.
As to `Cc1cc(N)nc2ccc(-c3cnn(C)c3)nc12` [Example 4-5, 4-methyl-6-(1-methylpyrazol-4-yl)-1,5-naphthyridin-2-amine], the IC50 in assay [1] worked out at 64.1 µM.
On to `Cc1cc(N)nc2ccc(-c3cnsc3)nc12` [Example 4-6, 6-isothiazol-4-yl-4-methyl-1,5-naphthyridin-2-amine], for which the 50% inhibitory concentration (IC50) in assay [1] came out at 21.8 µM.
For `Cc1cc(N)nc2ccc(-c3ccc(F)cc3)nc12` [Example 4-9, 6-(4-fluorophenyl)-4-methyl-1,5-naphthyridin-2-amine], the IC50 in assay [1] is 14 µM.
Still for that read-out and setting: the figure for `Cc1cc(N)nc2ccc(-c3ccsn3)nc12` [Example 4-10, 6-isothiazol-3-yl-4-methyl-1,5-naphthyridin-2-amine] is 13.5 µM; for `CNc1ccc2nc(N)cc(C)c2n1` [Example 5-1, N^2,8-dimethyl-1,5-naphthyridine-2,6-diamine] it is no less than 100 µM.
As for `Cc1cc(N)nc2ccc(NC3CCC3)nc12` [Example 5-3, N^6-cyclobutyl-4-methyl-1,5-naphthyridine-2,6-diamine], the IC50 in assay [1] amounted to 87.9 µM.
On to `Nc1ccc2cc(Cl)ncc2n1` [Example 6-1, 6-chloro-1,7-naphthyridin-2-amine], for which the IC50 in assay [1] is no less than 100 µM.
For `Cc1cc(N)nc2cc(C(C#N)N3C(=O)c4ccccc4C3=O)cnc12` (stereo not shown) [Example 7-7, 2-(6-amino-8-methyl-1,5-naphthyridin-3-yl)-2-(1,3-dioxoisoindolin-2-yl)acetonitrile], the 50% inhibitory concentration (IC50) on PRMT5/MEP50 complex (setting [4]) is greater than 300 µM; at PRMT5/MEP50 complex (setting [5]), 2.39 µM; in assay [1], 0.024 µM.
Regarding `Nc1ccc2c(n1)CN(c1cccnc1)CC2` [Example 11-1, 7-(3-pyridyl)-6,8-dihydro-5H-1,7-naphthyridin-2-amine], in assay [1], the IC50 is 3.68 µM.
Consider `Nc1ccc2c(n1)CN(c1cncc(Oc3ccccc3)c1)CC2` [Example 11-2, 7-(5-phenoxy-3-pyridyl)-6,8-dihydro-5H-1,7-naphthyridin-2-amine], for which the values for the IC50 (on PRMT5/MEP50 complex (setting [5]); in assay [1]) were 5.8 µM and 0.073 µM, respectively.
On to `Cn1cc(N2CCc3cc(F)c(N)nc3C2)cn1` [Example 11-3, 3-fluoro-7-(1-methyl-1H-pyrazol-4-yl)-5,6,7,8-tetrahydro-1,7-naphthyridin-2-amine], for which the IC50 in assay [1] is no less than 100 µM.
Consider `Cn1ncc(N2CCc3cc(F)c(N)nc3C2)c1-c1ccccc1C#N` [Example 11-4, 2-(4-(2-amino-3-fluoro-5,6-dihydro-1,7-naphthyridin-7(8H)-yl)-1-methyl-1H-pyrazol-5-yl)benzonitrile], for which the results for the half-maximal inhibitory concentration (IC50) (on PRMT5/MEP50 complex (setting [4]); on PRMT5/MEP50 complex (setting [5]); in assay [1]) were greater than 300 µM, 79.8 µM and 1.43 µM, respectively.
In the case of `Cc1cc2[nH]c(NC(=O)c3ccccc3)cc2nc1N` [Example 12-2, N-(5-amino-6-methyl-1H-pyrrolo[3,2-b]pyridin-2-yl)benzamide], the concentration for half-maximal inhibition (IC50) amounted to 60.2 µM at PRMT5/MEP50 complex (setting [4]), 44.7 µM at PRMT5/MEP50 complex (setting [5]) and 5.46 µM in assay [1].
Turning to `Nc1ccc2[nH]c(NC(=O)c3ccccc3)cc2n1` [Example 12-3, N-(5-amino-1H-pyrrolo[3,2-b]pyridin-2-yl)benzamide], the IC50 at PRMT5/MEP50 complex (setting [4]) came out at 95.9 µM; on PRMT5/MEP50 complex (setting [5]), 97.7 µM; in assay [1], 18.3 µM.
Regarding `Cc1cc2[nH]c(-n3cnc(Br)n3)cc2nc1N` [Example 13-2, 2-(3-bromo-1,2,4-triazol-1-yl)-6-methyl-1H-pyrrolo[3,2-b]pyridin-5-amine], the half-inhibitory concentration (IC50) on PRMT5/MEP50 complex (setting [6]) came out at 72.8 µM; at PRMT5/MEP50 complex (setting [4]), 83.8 µM; in assay [1], 4.27 µM.
For the compound `Cc1cc2[nH]c(N3CCN(C)C3=O)cc2nc1N` [Example 13-5, 1-(5-amino-6-methyl-1H-pyrrolo[3,2-b]pyridin-2-yl)-3-methyl-imidazolidin-2-one], the results for the IC50 (at PRMT5/MEP50 complex (setting [6]); on PRMT5/MEP50 complex (setting [4]); in assay [1]) were 70 µM, greater than 300 µM and 31.8 µM, respectively.
Taken in the same sequence, the figures for `Cc1cc2[nH]c(N3CCNC3=O)cc2nc1N` [Example 13-6, 1-(5-amino-6-methyl-1H-pyrrolo[3,2-b]pyridin-2-yl)imidazolidin-2-one] were 183 µM, 60.3 µM and 6.69 µM.
As for `Cc1cc2[nH]c(N3CC(=O)NC3=O)cc2nc1N` [Example 13-7, 1-(5-amino-6-methyl-1H-pyrrolo[3,2-b]pyridin-2-yl)imidazolidine-2,4-dione], the IC50 was greater than 300 µM at PRMT5/MEP50 complex (setting [6]), greater than 300 µM on PRMT5/MEP50 complex (setting [4]) and 2.29 µM in assay [1].
Regarding `Cc1cc2c(cc(CNC(=O)c3ccccc3)n2C2CC2)nc1N` [Example 15-1, N-[(5-amino-1-cyclopropyl-6-methyl-pyrrolo[3,2-b]pyridin-2-yl)methyl]benzamide], the IC50 is greater than 300 µM at PRMT5/MEP50 complex (setting [4]), 44.9 µM at PRMT5/MEP50 complex (setting [5]) and 0.362 µM in assay [1]. The compound also yielded an equilibrium dissociation constant (Kd) in assay [2] of 0.066 µM.
In the case of `CC(=O)N1CCC(=O)n2c(cc3nc(N)c(C)cc32)C1` [Example 15-2, 11-acetyl-5-amino-4-methyl-1,6,11-triazatricyclo[7.5.0.0^2,7]tetradeca-2,4,6,8-tetraen-14-one], the half-inhibitory concentration (IC50) was greater than 300 µM at PRMT5/MEP50 complex (setting [4]), 57.9 µM on PRMT5/MEP50 complex (setting [5]) and 2.47 µM in assay [1].
For `Cc1cc2c(cc(CNC(=O)c3ccccc3)n2C)nc1N` [Example 15-3, N-[(5-amino-1,6-dimethyl-pyrrolo[3,2-b]pyridin-2-yl)methyl]benzamide], the 50% inhibitory concentration (IC50) in assay [1] came out at 0.138 µM.
Take `C#Cc1c(CNC(=O)c2ccccc2)[nH]c2cc(C)c(N)nc12` [Example 15-4, N-((5-amino-3-ethynyl-6-methyl-1H-pyrrolo[3,2-b]pyridin-2-yl)methyl)benzamide]: the IC50 in assay [1] stood at 17 µM.
Regarding `CC(=O)c1c(CNC(=O)c2ccccc2)[nH]c2cc(C)c(N)nc12` [Example 15-5, N-((3-acetyl-5-amino-6-methyl-1H-pyrrolo[3,2-b]pyridin-2-yl)methyl)benzamide], the IC50 in assay [1] was no less than 100 µM. Also, the values for the Kd in assay [2] and in assay [3] were 774 µM and 631 µM, respectively.
On to `Cc1cc2[nH]c(CNC(=O)c3ccccc3)c(C#N)c2nc1N` [Example 15-6, N-((5-amino-3-cyano-6-methyl-1H-pyrrolo[3,2-b]pyridin-2-yl)methyl)benzamide], for which the IC50 is greater than 300 µM at PRMT5/MEP50 complex (setting [4]), 76.7 µM on PRMT5/MEP50 complex (setting [5]) and 2.64 µM in assay [1].
As to `CC(=O)NCc1cc2nc(N)c(C)cc2n1C(C)=O` [Example 15-7, N-((1-acetyl-5-amino-6-methyl-1H-pyrrolo[3,2-b]pyridin-2-yl)methyl)acetamide], the IC50 in assay [1] turned out to be 0.581 µM.
